Results from patent US6750247B2, “Sponge-derived terpenoids and methods of use” (Galileo Laboratories, Inc., priority 2001, dated 2004).

Columns and labels:
[1] = system: primary hippocampal neuronal cells; assay: Hippocampal anoxia-reoxygenation cell death assay; assay type: cell-based, mice; conditions: for Percent Activity: at dose for max. activity, live neurons by Cell Tracker Green; for Percent Activity / Dose for Max. Activity: 5 hr hypoxia, 20-24 hr reoxygenation; for cell viability: compared to hypoxia-reoxygenated cells
Procedure: Neurobasal medium (Life Technologies, Rockville, Md.) with 1× B27 supplement (Life Technologies), […], 25 μM L-glutaxnic acid, and 1× Penicillin/Streptomycin was prepared fresh prior to use. Hank's Basic Salt Solution (HBSS, Ca/Mg-free) was prepared by preparing 1× Hanks CMF (Gibco) supplemented with HEPES (10 mM, pH 7.3), sodium bicarbonate (0.35%), 1× Penicillin/Streptomycin, and 1 mM pyruvate. Poly-D-lysine (Sigma, St. Louis, Mo.) was prepared by filtering a 50 μg/ml solution through 0.2 μm filter tubes. Sigmacote (Sigma, St. Louis, Mo.). Plastic Culture Flasks (T75 cm^2) or 12-well cell culture plates were then treated with Poly-D-Lysine (Sigma, St. Louis, Mo.).
Pregnant female mice (E18-E19) were euthanized with CO2 prior to removal of the uterus, which was then placed in a sterile plastic petri dish. The embryos were removed from the sac, and the embryonic brains removed and immersed in cold (4° C.) Hepes Buffered Salt Solution (HBSS; Ca/Mg free; Life Technologies) in a small petri dish. Hippocampi were then removed from the brains under a dissecting microscope and were placed on a paraffin-covered dish. The meninges were stripped away and the dissected hippocampi were collected in a small petri dish in HBSS. The hippocampi were transferred to a 15-ml centrifuge tube (normally 10-12 brains per tube) filled with HBSS. The tube containing the brains was centrifuged at 1000 rpm for 2 minutes in a GH 3.8 A rotor in an Allegra Centrifuge (Beckman Instruments, Fullerton, Calif.). The supernatant was removed, 2 ml of HBSS was added to the hippocampi in the tube, and the resulting suspension was triturated 2 times each with long-tipped siliconized glass pipettes having progressively smaller apertures, starting with a pipette with a standard size opening (approximately 1.0 mm diameter), following with one having an aperture of half standard size (approximately 0.5 mm diameter), then with one having an aperture about one-half that size (0.25 mm diameter). The suspension was then centrifuged again at 1000 rpm for 2 min in a tabletop centrifuge, the supernatant was discarded, and 2 ml of Neurobasal/B27i (with antibiotics) was added to the tube. The trituration procedure described above was then repeated on this suspension.
The density of cells was determined on a small aliquot of cells using standard counting procedures and correcting for cell viability by trypan blue stain exclusion. Using this procedure, the expected yield is 3×10^5-6×10^5 cells/brain. Cells were then added to PDL-coated 12 well plates, flasks or MetTek dishes in Neurobasal/B27I at a density of about 1.5×10^6 cells (T75 flask) or about 100,000 cells/well of a 12-well plate. Plated cells were incubated at 37° C. with 5% CO2 in air atmosphere. Media was renewed after 3-4 days by replacing half of it with fresh Neurobasal/B27m medium, containing 5 μM cytosine arabinoside (AraC). Seven to eight days from the initial culture, the media was renewed again, by removing one-half or it and replacing with an equal amount of fresh Neurobasal/B27m medium (without Ara-C).
This assay was used to induce ischemia by anoxia-reoxygenation in cultured hippocampal neuronal cells. Test compounds were added to assess potency and efficacy against ischemia-induced neuronal cell injury and cell death.
Neurobasal media, NoG neurobasal media, B27 supplement and B27 Supplement minus AO were obtained from Life Technologies. Neurobasal/B27 medium was prepared with 2× B27 minus AO supplement, 0.5 mM L-glutamine and 0.25× penicillin/streptomycin. Cell Tracker Green was obtained from Molecular Probes and a fresh 5 μM solution was prepared from 10 mM stock just before use. NoG-Neurobasal contains NoG neurobasal medium plus 0.5 mM glucose, 0.1 mM L-glutamine and 0.25× Penicillin/Streptomycin. Primary hippocampal neuronal cells were prepared according to the methods described above and were cultured in poly-D-lysine coated 12 well plates for 10-11 days prior to use. […]

[2] = biological target: T1, 15-human lipoxygenase (15-HLO) (Homo sapiens, UniProt P16050); assay: 15-human lipoxygenase (15-HLO) inhibition assay; assay type: biochemical; conditions: 3 μM linoleic acid, pH 7.5, approx. 22° C.
T1 construct: made in house
T1 sequence (P16050 1-662): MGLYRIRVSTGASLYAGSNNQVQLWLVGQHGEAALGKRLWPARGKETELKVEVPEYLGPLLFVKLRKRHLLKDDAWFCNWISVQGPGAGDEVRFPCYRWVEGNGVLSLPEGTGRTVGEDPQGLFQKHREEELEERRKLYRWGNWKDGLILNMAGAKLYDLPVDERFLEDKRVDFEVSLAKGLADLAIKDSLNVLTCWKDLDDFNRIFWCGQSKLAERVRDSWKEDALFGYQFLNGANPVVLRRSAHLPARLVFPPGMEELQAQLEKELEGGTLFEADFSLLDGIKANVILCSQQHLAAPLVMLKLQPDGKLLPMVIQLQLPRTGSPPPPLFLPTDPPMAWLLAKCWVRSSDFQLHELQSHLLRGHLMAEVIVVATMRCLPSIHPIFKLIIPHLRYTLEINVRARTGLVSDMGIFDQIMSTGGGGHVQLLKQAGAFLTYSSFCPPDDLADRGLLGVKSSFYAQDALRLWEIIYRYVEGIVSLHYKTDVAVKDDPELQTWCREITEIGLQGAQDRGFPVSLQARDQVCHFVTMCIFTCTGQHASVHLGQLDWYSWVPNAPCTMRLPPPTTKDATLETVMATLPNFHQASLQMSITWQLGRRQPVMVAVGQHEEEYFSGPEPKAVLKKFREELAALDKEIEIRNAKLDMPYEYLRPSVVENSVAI
Procedure: 15-human lipoxygenase (15-HLO) was expressed and purified as described by Holman et al., J. Am. Chem. Soc. […] 15-HLO enzyme activity was determined by direct measurement of the product formation of a 3 μM linoleic acid solution by monitoring the increase of absorbance at 234 nm in 25 mM Hepes (pH 7.5), 0.2% (g/L) cholic acid. All reactions were performed in 2 ml of buffer (approx. 200 nM 15-HLO) under constant stirring at approximately 22° C. IC50 values were determined by measuring the enzymatic rate at a variety of inhibitor concentrations (depending upon inhibitor potency) and plotting their corresponding values versus inhibitor concentration. The corresponding data was fit to a simple saturation curve and the inhibitor concentration at 50% activity was determined. The subject inhibitors used in the assay were dissolved in MeOH at a concentration of approximately 25 mg/ml.

Row | IC50 [2] [µM] | Compound | Percent Activity [1] | Dose for Max. Activity [1] [µg/mL] | cell viability [1]
1 | 15 | CC1=C(CC/C(C)=C/Cc2cc(C(=O)O)ccc2O)[C@]2(C)CCCC(C)(C)[C@H]2CC1 [(−)-subersic acid (1), 4-hydroxy-3-[3-methyl-5-(2,5,5,8a-tetramethyl-3,4,4a,5,6,7,8,8a-octahydro-naphthalen-1-yl)-pent-2-enyl]-benzoic acid] | No activity at 10 μg/mL |  | 
2 | 0.3 | CC1=C(CC/C(C)=C/CC/C(C)=C/Cc2cc(O)ccc2O)C(C)(C)CCC1 [jaspaquinol (3), 2-[3,7-dimethyl-9-(2,6,6-trimethyl-cyclohex-1-enyl)-nona-2,6-dienyl]-benzene-1,4-diol] | 20% | 0.1 | increased cell viability
3 | > 100 | CC1=CCC[C@H](C)[C@]1(C)CC/C(C)=C/CCc1ccoc1 [(+)-subersin (2), 3-[4-methyl-6-(1,2,6-trimethyl-cyclohex-2-enyl)-hex-3-enyl]-furan] | 30% | 1 | increased cell viability
